Reference: US20120309739A1, “AKT / PKB INHIBITORS” (ALMAC DISCOVERY LIMITED, priority 2009, published 2012)
Structures can show the parent of a compound that is named as a salt.

Columns and labels:
Type in all cases: biochemical
AKT1 = biological target: T1, AKT1 (Homo sapiens, UniProt P31749); experiment: AKT Kinase Assay (IMAP fluorescent polarisation) vs AKT1; conditions: activated AKT1, FAM Crosstide substrate
T1 construct: purchased SignalChem
Procedure: (§1) Testing of the compounds was performed using an AKT Kinase Assay:
(§2) Activated AKT isoforms 1, 2 and 3 were assayed utilising a 5′ FAM Crosstide (Seq. GRPRTSSFAEG-OH). The extent of kinase phosphorylation was determined by fluorescent polarisation using IMAP progressive binding reagent, which introduces binding beads which allow the reagent to specifically bind to phosphate residues via covalent co-ordination complex bonds.
(§3) iMAP binding solution stops Crosstide/kinase interaction and specifically binds phosphorylated substrates. The degree of phosphorylation is determined by fluorescent polarisation (excitation 485 nm; emission 528 nm) or the reduction in speed of rotation of the excited substrate.
(§4) The following materials were used in the assay: • a) Activated AKT isoforms (SignalChem.) dissolved in Complete Reaction buffer at a pre-determined concentration selected so that the assay was carried out in the linear range. • b) AKT substrate peptide: FAM Crosstide (R7110) Molecular Devices, diluted in complete reaction buffer. • c) iMAP Progressive Screening Express Kit (R8127) Molecular Devices • d) Complete Reaction Buffer containing 0.1% BSA, 10 mM Tris-HCl, 10 mM MgCl2, 0.05% NaN3 and 0.01% phosphate free BSA, 1 mM DTT • e) Progressive Binding Solution containing 75% Buffer A, 25% Buffer B and low volume Binding Reagent which contains the binding entity for the assay • f) ATP diluted in complete reaction buffer • g) Black polystyrene 384 well assay plates (Nunc). • h) Biotek Synergy 4 Hybrid Plate reader.
(§5) 50 μl of test compound was dissolved in DMSO (Sigma Aldrich) and serially diluted in complete reaction buffer to give a fourteen point half log dose response and plated into 384 well black plates. The compound was incubated at room temperature with activated AKT isoform ([…]) at the pre-determined concentration, for 45 minutes.
(§6) […] of ATP solution mixed with 2.5 μl of AKT substrate peptide (FAM Crosstide (R7110) Molecular Devices) were dispensed into each well and the plate centrifuged at 1000 rpm for 20 seconds to ensure homogenous mixing of reagents. The reaction mix was incubated in the dark for one hour at room temperature.
(§7) The kinase reaction was stopped by the addition of Progressive Binding Solution and the mixture allowed to equilibrate for one hour in the dark, at room temperature.
(§8) The fluorescent polarisation generated in each well was determined using a […] Synergy 4 Hybrid plate reader. In brief, each reaction solution was excited at 485 nm with the emission measured at 528 nm in both the parallel and perpendicular pathway.
(§9) The polarisation value generated in each well was calculated by Gen5 software (Biotek) and the % inhibition of kinase activity compared to vehicle control was calculated via GraphPad Prism. IC50 values for each compound were calculated by non-linear regression analysis using Prism software.
(§10) All plates were internally controlled by two methods. Firstly, by calculating the signal:noise ratio; based on kinase polarisation without inhibitor and polarisation generated by complete reaction buffer in the absence of activated kinase. Secondly by determining IC50 values generated by known inhibitors of the AKT isoforms.

AKT2 = biological target: T2, AKT2 (Homo sapiens, UniProt P31751); experiment: AKT Kinase Assay (IMAP fluorescent polarisation) vs AKT2; conditions: activated AKT2, FAM Crosstide substrate
T2 construct: purchased SignalChem
Procedure: as §1, §2, §3, §4, §5, §6, §7, §8, §9, §10

AKT3 = biological target: T3, AKT3 (Homo sapiens, UniProt Q9Y243); experiment: AKT Kinase Assay (IMAP fluorescent polarisation) vs AKT3; conditions: activated AKT3, FAM Crosstide substrate
T3 construct: purchased SignalChem
Procedure: as §1, §2, §3, §4, §5, §6, §7, §8, §9, §10

T2 sequence (P31751 whole entry): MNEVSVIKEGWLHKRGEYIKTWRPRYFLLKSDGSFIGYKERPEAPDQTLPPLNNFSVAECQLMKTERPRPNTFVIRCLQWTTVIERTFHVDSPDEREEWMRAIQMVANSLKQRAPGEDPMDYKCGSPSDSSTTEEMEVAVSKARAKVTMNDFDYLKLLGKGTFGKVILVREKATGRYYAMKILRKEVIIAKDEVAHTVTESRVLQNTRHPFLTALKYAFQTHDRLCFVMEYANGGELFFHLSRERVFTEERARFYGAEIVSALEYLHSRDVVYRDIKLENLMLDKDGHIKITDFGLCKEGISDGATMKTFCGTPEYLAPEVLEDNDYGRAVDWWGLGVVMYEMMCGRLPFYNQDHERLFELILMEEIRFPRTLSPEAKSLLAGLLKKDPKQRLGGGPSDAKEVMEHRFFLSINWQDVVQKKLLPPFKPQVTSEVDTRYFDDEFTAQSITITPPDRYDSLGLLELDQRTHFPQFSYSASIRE
T1 sequence (P31749 whole entry): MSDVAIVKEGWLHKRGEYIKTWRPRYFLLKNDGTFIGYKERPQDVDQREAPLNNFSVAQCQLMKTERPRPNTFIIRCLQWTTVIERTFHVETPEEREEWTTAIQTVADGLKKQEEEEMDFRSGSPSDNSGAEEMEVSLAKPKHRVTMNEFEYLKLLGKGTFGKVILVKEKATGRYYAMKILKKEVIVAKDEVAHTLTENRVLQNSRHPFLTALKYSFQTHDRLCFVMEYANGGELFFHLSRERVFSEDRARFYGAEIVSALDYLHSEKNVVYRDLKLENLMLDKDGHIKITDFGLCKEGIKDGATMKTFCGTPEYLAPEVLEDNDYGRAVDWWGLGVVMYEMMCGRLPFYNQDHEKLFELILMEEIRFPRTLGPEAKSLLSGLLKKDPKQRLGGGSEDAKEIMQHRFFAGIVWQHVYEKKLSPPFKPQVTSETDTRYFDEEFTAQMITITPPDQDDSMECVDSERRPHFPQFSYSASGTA
T3 sequence (Q9Y243 whole entry): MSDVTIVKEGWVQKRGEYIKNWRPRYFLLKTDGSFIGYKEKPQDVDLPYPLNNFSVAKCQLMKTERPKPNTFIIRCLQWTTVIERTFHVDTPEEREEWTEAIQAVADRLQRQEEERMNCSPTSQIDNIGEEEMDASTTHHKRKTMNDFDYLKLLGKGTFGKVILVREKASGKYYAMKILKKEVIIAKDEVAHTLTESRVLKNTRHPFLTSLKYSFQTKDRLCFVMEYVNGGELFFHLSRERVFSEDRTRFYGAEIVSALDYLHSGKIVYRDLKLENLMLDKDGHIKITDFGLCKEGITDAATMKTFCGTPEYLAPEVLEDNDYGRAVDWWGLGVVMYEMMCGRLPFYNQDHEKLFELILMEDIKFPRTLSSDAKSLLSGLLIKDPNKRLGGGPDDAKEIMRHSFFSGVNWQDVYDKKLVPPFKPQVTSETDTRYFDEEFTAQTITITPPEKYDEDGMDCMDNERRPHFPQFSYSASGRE

| SMILES | IC50 (AKT1) [nM] | IC50 (AKT2) [nM] | IC50 (AKT3) [nM] |
| --- | --- | --- | --- |
| NC1(c2ccc(-c3oc4ncccc4c3-c3ccccc3)cc2)CCC1 [Example 19, 1-(4-(3-Phenylfuro[2,3-b]pyridin-2-yl)phenyl)cyclobutanamine] | > 10000 | > 10000 | > 10000 |
| NC1(c2ccc(-c3oc4ncc([N+](=O)[O-])cc4c3-c3ccccc3)cc2)CCC1 [Example 21, 1-(4-(5-Nitro-3-phenylfuro[2,3-b]pyridin-2-yl)phenyl)cyclobutanamine] | 1000 to 10000 | 1000 to 10000 | > 10000 |
| Nc1cnc2oc(-c3ccc(C4(N)CCC4)cc3)c(-c3ccccc3)c2c1 [Example 22, 2-(4-(1-Aminocyclobutyl)phenyl)-3-phenylfuro[2,3-b]pyridin-5-amine] | 1000 to 10000 | 1000 to 10000 | > 10000 |
| NC1(c2ccc(-c3c(-c4ccccc4)oc4cccnc34)cc2)CCC1 [Example 23, 1-(4-(2-Phenylfuro[3,2-b]pyridin-3-yl)phenyl)cyclobutanamine] | > 10000 | > 10000 | > 10000 |
| N#Cc1ccc2c(-c3ccccc3)c(-c3ccc(C4(N)CCC4)cc3)oc2c1 [Example 25, 2-(4-(1-Aminocyclobutyl)phenyl)-3-phenylbenzofuran-6-carbonitrile] | 1000 to 10000 | 1000 to 10000 | > 10000 |
| NC1(c2ccc(-c3oc4ncc(N5CCOCC5)cc4c3-c3ccccc3)cc2)CCC1 [Example 28, 1-(4-(5-Morpholino-3-phenylfuro[2,3-b]pyridin-2-yl)phenyl)cyclobutanamine] | > 10000 | 1000 to 10000 | > 10000 |
| NC1(c2ccc(-c3oc4ccccc4c(=O)c3-c3ccccc3)cc2)CCC1 [Example 29, 2-[4-(1-Amino-cyclobutyl)-phenyl]-3-phenyl-chromen-4-one hydrogen chloride*] | 1000 to 10000 | 1000 to 10000 | > 10000 |
| N#Cc1cccc2c(-c3ccccc3)c(-c3ccc(C4(N)CNC4)cc3)oc12 [Example 30, 2-(4-(3-Aminoazetidin-3-yl)phenyl)-3-phenylbenzofuran-7-carbonitrile] | 100 to 1000 | > 10000 | > 10000 |
| COc1nc(N)nc2oc(-c3ccc(C4(N)CCC4)cc3)c(-c3ccccc3)c12 [Example 31, 6-(4-(1-Aminocyclobutyl)phenyl)-4-methoxy-5-phenylfuro[2,3-d]pyrimidin-2-amine] | ≤ 100 | 100 to 1000 | > 10000 |
| COc1nc(NCCN2CCN(C)CC2)nc2oc(-c3ccc(C4(N)CCC4)cc3)c(-c3ccccc3)c12 [Example 34, 6-(4-(1-Aminocyclobutyl)phenyl)-4-methoxy-N-(2-(4-methylpiperazin-1-yl)ethyl)-5-phenylfuro[2,3-d]pyrimidin-2-amine] | ≤ 100 | 100 to 1000 | 1000 to 10000 |
| COc1nc(NCCO)nc2oc(-c3ccc(C4(N)CCC4)cc3)c(-c3ccccc3)c12 [Example 38, 2-((6-(4-(1-Aminocyclobutyl)phenyl)-4-methoxy-5-phenylfuro[2,3-d]pyrimidin-2-yl)amino)ethanol] | ≤ 100 | 100 to 1000 | > 10000 |
| COc1nc(N2CCC(N)CC2)nc2oc(-c3ccc(C4(N)CCC4)cc3)c(-c3ccccc3)c12 [Example 39, 1-(6-(4-(1-Aminocyclobutyl)phenyl)-4-methoxy-5-phenylfuro[2,3-d]pyrimidin-2-yl)piperidin-4-amine] | 100 to 1000 | 100 to 1000 | 1000 to 10000 |
| COc1nc(NCCCO)nc2oc(-c3ccc(C4(N)CCC4)cc3)c(-c3ccccc3)c12 [Example 41, 3-((6-(4-(1-Aminocyclobutyl)phenyl)-4-methoxy-5-phenylfuro[2,3-d]pyrimidin-2-yl)amino)propan-1-ol] | ≤ 100 | 100 to 1000 | > 10000 |
| COCCNc1nc(OC)c2c(-c3ccccc3)c(-c3ccc(C4(N)CCC4)cc3)oc2n1 [Example 42, 6-(4-(1-Aminocyclobutyl)phenyl)-4-methoxy-N-(2-methoxyethyl)-5-phenylfuro[2,3-d]pyrimidin-2-amine] | 100 to 1000 | 100 to 1000 | > 10000 |
| COc1nc(NCCN)nc2oc(-c3ccc(C4(N)CCC4)cc3)c(-c3ccccc3)c12 [Example 43, N^1-(6-(4-(1-Aminocyclobutyl)phenyl)-4-methoxy-5-phenylfuro[2,3-d]pyrimidin-2-yl)ethane-1,2-diamine] | 100 to 1000 | 100 to 1000 | 1000 to 10000 |
| CCOc1nc(N2CCNCC2)nc2oc(-c3ccc(C4(N)CCC4)cc3)c(-c3ccccc3)c12 [Example 46, 1-(4-(4-Ethoxy-5-phenyl-2-(piperazin-14)furo[2,3-d]pyrimidin-6-yl)phenyl)cyclobutanamine, HCl] | 100 to 1000 | 100 to 1000 | 100 to 1000 |
| COc1nc(N2CCCCC2)nc2oc(-c3ccc(C4(N)CCC4)cc3)c(-c3ccccc3)c12 [Example 47, 1-(4-(4-Methoxy-5-phenyl-2-(piperidin-1-yl)furo[2,3-d]pyrimidin-6-yl)phenyl)cyclobutanamine] | 1000 to 10000 | 1000 to 10000 | > 10000 |
| COc1nc(NC(C)=O)nc2oc(-c3ccc(C4(N)CCC4)cc3)c(-c3ccccc3)c12 [Example 48, N-(6-(4-(1-Aminocyclobutyl)phenyl)-4-methoxy-5-phenylfuro[2,3-d]pyrimidin-2-yl)acetamide] | ≤ 100 | 100 to 1000 | 100 to 1000 |

Second part, the molecule after the results:

| IC50 (AKT1) [nM] | IC50 (AKT2) [nM] | IC50 (AKT3) [nM] | SMILES |
| --- | --- | --- | --- |
| 1000 to 10000 | 1000 to 10000 | > 10000 | NC1(c2ccc(-c3oc4ncncc4c3-c3ccccc3)cc2)CCC1 [Example 20, 1-(4-(5-Phenylfuro[2,3-d]pyrimidin-6-yl)phenyl)cyclobutanamine] |
| 100 to 1000 | 1000 to 10000 | > 10000 | COc1nc(N(C)C)nc2oc(-c3ccc(C4(N)CCC4)cc3)c(-c3ccccc3)c12 [Example 26, 6-(4-(1-Aminocyclobutyl)phenyl)-4-methoxy-N,N-dimethyl-5-phenylfuro[2,3-d]pyrimidin-2-amine] |
| 100 to 1000 | 100 to 1000 | 1000 to 10000 | COc1nc(N2CC(CN)C2)nc2oc(-c3ccc(C4(N)CCC4)cc3)c(-c3ccccc3)c12 [Example 27, 1-(4-(2-(3-(Aminomethyl)azetidin-1-yl)-4-methoxy-5-phenylfuro[2,3-d]pyrimidin-6-yl)phenyl)cyclobutanamine] |
| 100 to 1000 | 100 to 1000 | 1000 to 10000 | COc1nc(N2CCN(CCN(C)C)CC2)nc2oc(-c3ccc(C4(N)CCC4)cc3)c(-c3ccccc3)c12 [Example 33, 1-(4-(2-(4-(2-(Dimethylamino)ethyl)piperazin-1-yl)-4-methoxy-5-phenylfuro[2,3-d]pyrimidin-6-yl)phenyl)cyclobutanamine] |
| 100 to 1000 | 100 to 1000 | 1000 to 10000 | COc1nc(N2CC[C@H](O)C2)nc2oc(-c3ccc(C4(N)CCC4)cc3)c(-c3ccccc3)c12 [Example 35, (S)-1-(6-(4-(1-Aminocyclobutyl)phenyl)-4-methoxy-5-phenylfuro[2,3-d]pyrimidin-2-yl)pyrrolidin-3-ol] |
| 100 to 1000 | 100 to 1000 | > 10000 | COc1nc(N2CCC(O)CC2)nc2oc(-c3ccc(C4(N)CCC4)cc3)c(-c3ccccc3)c12 [Example 40, 1-(6-(4-(1-Aminocyclobutyl)phenyl)-4-methoxy-5-phenylfuro[2,3-d]pyrimidin-2-yl)piperidin-4-ol] |
| ≤ 100 | 100 to 1000 | > 10000 | COc1nc(-n2ccnc2)nc2oc(-c3ccc(C4(N)CCC4)cc3)c(-c3ccccc3)c12 [Example 44, 1-(4-(2-(1H-Imidazol-1-yl)-4-methoxy-5-phenylfuro[2,3-d]pyrimidin-6-yl)phenyl)cyclobutanamine] |
| 100 to 1000 | 100 to 1000 | 1000 to 10000 | COc1nc(N2CCN(C(C)=O)CC2)nc2oc(-c3ccc(C4(N)CCC4)cc3)c(-c3ccccc3)c12 [Example 45, 1-(4-(6-(4-(1-Aminocyclobutyl)phenyl)-4-methoxy-5-phenylfuro[2,3-d]pyrimidin-2-yl)piperazin-1-yl)ethanone] |
